Reference: ChEMBL document CHEMBL4823243, “Synergistic induction of apoptosis in resistant head and neck carcinoma and leukemia by alkoxyamide-based histone deacetylase inhibitors” (Eur J Med Chem, 2021)
Calls of active or inactive are those of the source. The calls are words filed in the database; no cut-off is given here.

Assays:
Histone deacetylase [1] = assay: Inhibition of HDAC in human A2780 cells using Boc-Lys (acetyl)-AMC as substrate preincubated for 18 hrs followed by susbtrate addition and measured after 3 hrs by fluorescence microplate reader assay; format: cell-based
Histone deacetylase [2] = assay: Inhibition of HDAC in human CAL-27 cells using Boc-Lys (acetyl)-AMC as substrate preincubated for 18 hrs followed by susbtrate addition and measured after 3 hrs by fluorescence microplate reader assay; format: cell-based
A2780 = assay: Antiproliferative activity against human A2780 cells assessed as reduction in cell viability after 72 hrs by MTT assay; format: functional, cell-based; details: A2780, 72 h
CAL-27 [3] = assay: Antiproliferative activity against human CAL-27 cells assessed as reduction in cell viability after 72 hrs by MTT assay; format: functional, cell-based; details: CAL-27, 72 h
Histone deacetylase 2 = Histone deacetylase 2 (Homo sapiens, UniProt Q92769); assay: Inhibition of recombinant human full length C-terminal GST-fusion tagged HDAC2 expressed in baculovirus infected insect cells using Boc-Lys(Ac)-AMC as substrate preincubated for 5 mins followed by substrate addition measured after 90 mins by fluorimetry; format: cell-based
Sequence of Histone deacetylase 2 (Q92769 whole entry, the tested form may be a part): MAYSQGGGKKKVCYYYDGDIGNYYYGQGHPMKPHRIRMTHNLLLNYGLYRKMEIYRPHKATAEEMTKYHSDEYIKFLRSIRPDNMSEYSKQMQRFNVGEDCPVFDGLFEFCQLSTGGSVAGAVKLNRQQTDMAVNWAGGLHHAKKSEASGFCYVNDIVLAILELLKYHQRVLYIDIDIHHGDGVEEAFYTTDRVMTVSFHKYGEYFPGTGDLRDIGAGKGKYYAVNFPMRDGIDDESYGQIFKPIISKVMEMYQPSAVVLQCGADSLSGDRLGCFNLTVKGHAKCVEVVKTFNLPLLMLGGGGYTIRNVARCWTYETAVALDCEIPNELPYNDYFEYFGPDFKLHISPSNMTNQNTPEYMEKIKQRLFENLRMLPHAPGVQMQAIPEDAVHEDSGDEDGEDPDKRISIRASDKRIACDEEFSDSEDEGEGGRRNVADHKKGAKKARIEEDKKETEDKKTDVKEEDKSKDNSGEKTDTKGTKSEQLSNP

Histone deacetylase 4 = Histone deacetylase 4 (Homo sapiens, UniProt P56524); assay: Inhibition of recombinant human N-terminal GST-fusion tagged/C-terminal GST-tagged HDAC4 (627 to 1084 residues) expressed in baculovirus infected insect cells using Boc-Lys(TFA)-AMC as substrate preincubated for 5 mins followed by substrate addition measured after 90 mins by fluorimetry
Sequence of Histone deacetylase 4 (P56524 whole entry, the tested form may be a part): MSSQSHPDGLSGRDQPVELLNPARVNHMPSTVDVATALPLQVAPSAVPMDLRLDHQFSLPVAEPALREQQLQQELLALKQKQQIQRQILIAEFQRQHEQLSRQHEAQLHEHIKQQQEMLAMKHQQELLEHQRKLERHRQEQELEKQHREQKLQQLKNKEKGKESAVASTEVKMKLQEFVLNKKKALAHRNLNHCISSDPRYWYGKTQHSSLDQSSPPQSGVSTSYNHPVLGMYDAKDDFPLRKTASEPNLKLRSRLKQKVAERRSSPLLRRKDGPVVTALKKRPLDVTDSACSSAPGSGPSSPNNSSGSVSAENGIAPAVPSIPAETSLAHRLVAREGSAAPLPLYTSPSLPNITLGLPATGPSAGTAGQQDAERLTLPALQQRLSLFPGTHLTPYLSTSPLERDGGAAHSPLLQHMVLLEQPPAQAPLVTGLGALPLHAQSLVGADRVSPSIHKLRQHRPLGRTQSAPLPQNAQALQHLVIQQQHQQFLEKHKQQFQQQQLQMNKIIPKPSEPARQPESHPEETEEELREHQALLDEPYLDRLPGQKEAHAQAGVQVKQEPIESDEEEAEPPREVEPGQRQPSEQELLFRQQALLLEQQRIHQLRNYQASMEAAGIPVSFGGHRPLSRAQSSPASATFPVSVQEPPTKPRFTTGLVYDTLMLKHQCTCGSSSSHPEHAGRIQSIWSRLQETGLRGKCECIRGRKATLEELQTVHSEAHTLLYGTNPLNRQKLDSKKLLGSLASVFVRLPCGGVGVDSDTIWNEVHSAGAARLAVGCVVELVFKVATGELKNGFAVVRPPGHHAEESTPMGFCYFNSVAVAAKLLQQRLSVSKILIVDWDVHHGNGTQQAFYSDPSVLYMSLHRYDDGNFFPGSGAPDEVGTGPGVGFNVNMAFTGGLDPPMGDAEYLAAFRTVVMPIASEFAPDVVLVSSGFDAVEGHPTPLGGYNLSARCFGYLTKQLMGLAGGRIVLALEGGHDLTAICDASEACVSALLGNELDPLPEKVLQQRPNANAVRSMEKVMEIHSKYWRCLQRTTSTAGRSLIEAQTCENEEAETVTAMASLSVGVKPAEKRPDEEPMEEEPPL

[4] = target: T1, Protein deacetylase HDAC6 (Homo sapiens, UniProt Q9UBN7); assay: Inhibition of recombinant human N-terminal GST-tagged HDAC6 (1 to 1215 residues) expressed in baculovirus infected insect cells using Boc-Lys(Ac)-AMC as substrate preincubated for 5 mins followed by substrate addition measured after 90 mins by fluorimetry
T1 sequence (Q9UBN7 whole entry): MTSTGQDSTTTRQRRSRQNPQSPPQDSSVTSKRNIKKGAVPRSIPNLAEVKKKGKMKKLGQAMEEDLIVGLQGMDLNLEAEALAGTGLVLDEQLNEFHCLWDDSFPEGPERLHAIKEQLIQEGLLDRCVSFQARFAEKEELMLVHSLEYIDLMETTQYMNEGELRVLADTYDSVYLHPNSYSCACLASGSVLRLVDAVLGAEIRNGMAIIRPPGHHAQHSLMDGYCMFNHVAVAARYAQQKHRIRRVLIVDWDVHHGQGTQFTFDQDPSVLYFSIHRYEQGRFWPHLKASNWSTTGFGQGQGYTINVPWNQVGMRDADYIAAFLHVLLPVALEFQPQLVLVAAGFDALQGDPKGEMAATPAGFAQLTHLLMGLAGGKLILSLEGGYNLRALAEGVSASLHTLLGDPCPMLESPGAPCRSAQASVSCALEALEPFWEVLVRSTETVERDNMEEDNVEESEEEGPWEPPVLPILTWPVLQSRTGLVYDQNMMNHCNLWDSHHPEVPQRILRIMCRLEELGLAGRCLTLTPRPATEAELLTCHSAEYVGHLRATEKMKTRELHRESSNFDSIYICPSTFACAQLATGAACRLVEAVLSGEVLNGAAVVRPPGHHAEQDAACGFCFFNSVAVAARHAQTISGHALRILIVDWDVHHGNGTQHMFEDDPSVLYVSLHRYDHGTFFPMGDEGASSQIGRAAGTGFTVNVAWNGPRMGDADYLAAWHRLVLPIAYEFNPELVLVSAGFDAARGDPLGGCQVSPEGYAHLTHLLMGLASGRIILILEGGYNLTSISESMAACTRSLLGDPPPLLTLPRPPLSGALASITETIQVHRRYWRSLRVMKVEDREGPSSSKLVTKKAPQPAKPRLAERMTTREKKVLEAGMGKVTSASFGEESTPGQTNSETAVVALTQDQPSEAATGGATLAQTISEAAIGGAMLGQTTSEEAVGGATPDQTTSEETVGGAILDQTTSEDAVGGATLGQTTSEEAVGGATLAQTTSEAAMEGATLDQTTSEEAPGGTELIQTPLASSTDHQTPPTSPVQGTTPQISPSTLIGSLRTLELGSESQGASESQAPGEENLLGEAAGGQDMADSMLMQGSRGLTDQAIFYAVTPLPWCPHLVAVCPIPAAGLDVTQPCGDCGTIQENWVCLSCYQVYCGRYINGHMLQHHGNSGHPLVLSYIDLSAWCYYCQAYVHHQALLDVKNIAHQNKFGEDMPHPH

Histone deacetylase 8 = target: T2, Histone deacetylase 8 (Homo sapiens, UniProt Q9BY41); assay: Inhibition of recombinant human C-terminal His-fusion tagged/N-terminal Strep2 tagged HDAC8 (1 to 377 residues) expressed in insect cells using Boc-Lys(TFA)-AMC as substrate preincubated for 5 mins followed by substrate addition measured after 90 mins by fluorimetry
T2 sequence (Q9BY41 whole entry): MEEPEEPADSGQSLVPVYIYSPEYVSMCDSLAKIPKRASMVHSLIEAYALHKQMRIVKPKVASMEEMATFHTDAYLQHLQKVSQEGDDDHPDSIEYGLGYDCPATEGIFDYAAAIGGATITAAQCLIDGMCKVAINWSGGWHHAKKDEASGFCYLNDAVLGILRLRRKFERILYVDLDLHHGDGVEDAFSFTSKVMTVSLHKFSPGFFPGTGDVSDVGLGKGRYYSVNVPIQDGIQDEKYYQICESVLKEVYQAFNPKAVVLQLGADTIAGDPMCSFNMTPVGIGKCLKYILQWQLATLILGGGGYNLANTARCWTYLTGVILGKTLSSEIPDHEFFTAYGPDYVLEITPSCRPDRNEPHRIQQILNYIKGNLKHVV

[5] = target: Class 1 histone deacetylase (Homo sapiens) (UniProt Q13547+O15379+Q92769+Q9BY41); assay: Inhibition of class-1 HDAC in human CAL-27 cells assessed as induction of histone H-3 acetylation at 5 uM for 24 hrs by Western blot analysis; format: cell-based
Cal27CisR [6] = assay: Induction of DNA damage in human Cal27CisR cells assessed as increase in gamma H2AX phosphorylation pretreated for 24 hrs followed by cisplatin treatment and further incubated for 18 hrs measured by Western blot analysis; format: functional, cell-based; details: time 42.0 hrs
Cal27CisR [7] = assay: Induction of DNA damage human Cal27CisR cells assessed as upregulation of gamma H2AX in presence cisplatin measured by Western blot analysis; format: functional
CAL-27 [8] = assay: Induction of DNA damage in human CAL-27 cells assessed as upregulation of gamma H2AX in presence cisplatin measured by Western blot analysis; format: functional, cell-based
[9] = target: T3, Protein deacetylase HDAC6 (Homo sapiens) (UniProt Q9UBN7); assay: Inhibition of HDAC6 in human CAL-27 cells assessed as accumulation of acetylated alpha-tubulin at 5 uM for 24 hrs by Western blot analysis; format: cell-based
T3 sequence (whole entry): T1 sequence (Q9UBN7 whole entry)

[10] = target: Histone deacetylase (Homo sapiens) (UniProt Q13547+O15379+Q9UBN7+Q92769+Q9UQL6+Q8WUI4+Q9BY41+Q96DB2+P56524+Q9UKV0+Q969S8); assay: Inhibition of HDAC in human Cal27CisR cells assessed as combination index at 0.5 uM measured in presence of 50 uM cDDP by MTT-based Chou-Talalay method; format: cell-based

Compound	IC50 (Histone deacetylase [1])	IC50 (Histone deacetylase [2])	IC50 (A2780)	IC50 (CAL-27 [3])	IC50 (Histone deacetylase 2)	IC50 (Histone deacetylase 4)	IC50 [4]	IC50 (Histone deacetylase 8)	Activity [5]	Activity (Cal27CisR [6])	Activity (Cal27CisR [7])	Activity (CAL-27 [8])	inhibition [9]	CI [10]
O=C(CCCCCONC(=O)c1cc2ccccc2[nH]1)NO	670 nM	120 nM	4050 nM	300 nM	57 nM	55700 nM	13 nM	10300 nM	Active	Active	Active	Active	Active	0.47
O=C(CCCCCONC(=O)c1ccc2ccccc2n1)NO	480 nM	180 nM	800 nM	250 nM	92 nM	> 100000 nM	25 nM	9780 nM	Active	Active	Active	Active	Active	0.5
O=C(CCCCCONC(=O)c1nccc2ccccc12)NO	250 nM	1500 nM	19900 nM	2120 nM	759 nM	> 100000 nM	173 nM	12400 nM	Active	Active	Active	Active	Active	0.97
